In US20150045391A1, “FILANESIB COMBINED WITH POMALIDOMIDE DISPLAYS ENHANCED ANTI-TUMOR ACTIVITY” (Array BioPharma Inc., priority 2013, published 2015):

Assays:
[1] = Plasma exposure after a single IP dose of filanesib and/or pomalidomide (Example 1); format: in vivo; details: mouse, male CD-1 mice
Procedure: Naïve male CD-1 mice were administered a single intraperitoneal (“IP”) bolus dose of filanesib (12.5 mg/kg) and/or pomalidomide (10 mg/kg). Blood was collected at 4, 8, 12, 16, 20 and 24 hours via cardiac puncture, ethylenediaminetetraacetic acid (“EDTA”) plasma was prepared, and concentration of plasma analytes were measured.

[2] = system: RPMI-8226 xenografts; test: RPMI-8226 xenograft tumor growth inhibition (Example 2); format: in vivo, mice; details: for % Complete Response / % Max Body Weight Loss: RPMI-8226, filanesib 12.5 mg/kg IP days 1 and 2, pomalidomide 10 mg/kg IP QD days 1-21; for % Complete Response: SCID-beige mice, no palpable tumor for 2 consecutive measurements; for cure rate: RPMI-8226 model, filanesib 12.5 mg/kg IP D1, 2, pomalidomide 10 mg/kg IP QD, cure = no palpable tumor 100 days from study initiation
Procedure: (§1) Female SCID-beige mice were inoculated subcutaneously with 10×10^6 H929 (FIG. 2), RPMI-8226 (FIG. 3) or JJN3 (FIG. 4) tumor cells in 50% 1× phosphate buffered saline (“PBS”) 50% Matrigel™ (100 μL). […] Tumor size and animal body weight were measured on the days indicated in FIGS. 2-4 over the course of each study. Tumor volume was calculated using the formula, volume=[…]. Percent complete response indicates an animal has no palapable tumor for 2 consecutive measurements.

[3] = system: JJN3 xenografts; test: JJN3 xenograft tumor growth inhibition (Example 2); format: in vivo, mice; details: for % Complete Response: SCID-beige mice, filanesib 12.5 mg/kg IP days 1 and 2, pomalidomide 10 mg/kg IP QD days 1-19, no palpable tumor for 2 consecutive measurements; for % Max Body Weight Loss: filanesib 12.5 mg/kg IP days 1 and 2, pomalidomide 10 mg/kg IP QD days 1-19
Procedure: as §1

[4] = system: H929 xenografts; test: H929 xenograft tumor growth inhibition (Example 2); format: in vivo, mice; details: for % Complete Response: SCID-beige mice, filanesib 12.5 mg/kg IP days 1 and 2, pomalidomide 10 mg/kg IP QD days 1-21, no palpable tumor for 2 consecutive measurements; for % Max Body Weight Loss: filanesib 12.5 mg/kg IP days 1 and 2, pomalidomide 10 mg/kg IP QD days 1-21
Procedure: as §1

[5] = Hematology profiles and body weight in naive CD-1 mice (Example 3); format: in vivo; details: for neutropenia / neutrophil loss, in words: hematology analysis in mice
Procedure: Naïve male CD-1 mice were administered saline vehicle (10 mL/kg, IP, days 1 and 2), filanesib (12.5 mg/kg, IP, days 1 and 2) and/or pomalidomide (1 or 10 mg/kg, IP, QD, days 1-14). Hematology parameters (platelets FIG. 5, lymphocytes FIG. 6, neutrophils FIG. 7) were measured on days 5 and 12, and animal body weight (FIG. 8) was measured on days 1, 3, 5, 8, 10 and 12. For hematology analysis, blood was collected 12 hours following the final dose via cardiac puncture, […] was prepared, and hematology profiles were measured on Hemavet 950FS analyzer.

[6] = system: RPMI-8226 xenografts; test: RPMI-8226 dose ranging xenograft (Example 4); format: in vivo, mice; details: for % Cure Rate: no palpable tumor 158 days from study start
Procedure: Female SCID-Beige mice were inoculated subcutaneously with 10×10^6 RPMI-8226 tumor cells in 50% 1×PBS 50% Matrigel™ (100 μL). […] Tumor size and animal body weight were measured on the indicated days over the course of each study. Tumor volume was calculated using the formula, volume=[…]. Percent cure rate indicates an animal has no palpable tumor 158 days from study start.

[7] = Predicted in vitro IC50 of filanesib
[8] = Dose limiting toxicity of filanesib; details: in vivo
[9] = pomalidomide in plasma, single IP bolus pomalidomide 10 mg/kg alone or with filanesib 12.5 mg/kg
[10] = Day 5, filanesib 12.5 mg/kg IP days 1 and 2 and/or pomalidomide 1 mg/kg IP QD days 1-14
[11] = Day 5, pomalidomide 10 mg/kg IP QD days 1-14, alone or with filanesib 12.5 mg/kg IP days 1 and 2
[12] = Day 12, filanesib 12.5 mg/kg IP days 1 and 2 and/or pomalidomide 1 mg/kg IP QD days 1-14
[13] = Day 12, pomalidomide 10 mg/kg IP QD days 1-14, alone or with filanesib 12.5 mg/kg IP days 1 and 2
[14] = filanesib 12.5 mg/kg IP days 1 and 2 and/or pomalidomide 1 mg/kg IP QD days 1-14
[15] = filanesib 7.5 mg/kg IP days 1 and 2 and/or pomalidomide 5 mg/kg IP QD days 1-21
[16] = filanesib 12.5 mg/kg IP days 1 and 2 and/or pomalidomide 10 mg/kg IP QD days 1-21
[17] = filanesib in plasma, single IP bolus filanesib 12.5 mg/kg alone or with pomalidomide 10 mg/kg

Nc1cccc2c1C(=O)N(C1CCC(=O)NC1=O)C2=O (centres unmarked) [pomalidomide]
AUC(0-t) [1, 9]: 3080 ng·h/mL
Cmax [1, 9]: 956 ng/mL
Tmax [1, 9]: 4.98 min
% Complete Response [2]: 12.5%
% Max Body Weight Loss [2]: 0.9%
cure rate [2]: 0%
% Complete Response [3]: 0%
% Max Body Weight Loss [3]: 0%
% Complete Response [4]: 28.5%
% Max Body Weight Loss [4]: 4.4%
% Decrease in Cell Counts from Vehicle, Lymphocytes [5, 10]: 9%
% Decrease in Cell Counts from Vehicle, Neutrophils [5, 10]: 27%
% Decrease in Cell Counts from Vehicle, Platelets [5, 10]: 8%
% Decrease in Cell Counts from Vehicle, Lymphocytes [5, 11]: 4%
% Decrease in Cell Counts from Vehicle, Neutrophils [5, 11]: 21%
% Decrease in Cell Counts from Vehicle, Platelets [5, 11]: 10%
% Decrease in Cell Counts from Vehicle, Lymphocytes [5, 12]: 0%
% Decrease in Cell Counts from Vehicle, Neutrophils [5, 12]: 0%
% Decrease in Cell Counts from Vehicle, Platelets [5, 12]: 0%
% Decrease in Cell Counts from Vehicle, Lymphocytes [5, 13]: 0%
% Decrease in Cell Counts from Vehicle, Neutrophils [5, 13]: 0%
% Decrease in Cell Counts from Vehicle, Platelets [5, 13]: 0%
% Max Body Weight Loss [5, 14]: 0%
neutropenia / neutrophil loss, in words [5]: caused neutropenia
% Max Body Weight Loss ([5]; pomalidomide 10 mg/kg IP QD days 1-14, alone or with filanesib 12.5 mg/kg IP days 1 and 2): 0%
% Max Body Weight Loss [6, 15]: 0.5%
% Cure Rate [6, 15]: 0%
% Max Body Weight Loss [6, 16]: 1.4%
% Cure Rate [6, 16]: 0%

CON(C)C(=O)N1N=C(c2cc(F)ccc2F)S[C@@]1(CCCN)c1ccccc1.Cl [filanesib, (S)-2-(3-aminopropyl)-5-(2,5-difluorophenyl)-N-methoxy-N-methyl-2-phenyl-1,3,4-thiadiazole-3(2H)-carboxamide hydrochloride]
AUC(0-t) [1, 17]: 3090 ng·h/mL
Cmax [1, 17]: 1660 ng/mL
Tmax [1, 17]: 4.98 min
% Complete Response [2]: 50%
% Max Body Weight Loss [2]: 5.3%
cure rate [2]: 0%
% Complete Response [3]: 0%
% Max Body Weight Loss [3]: 6.6%
% Complete Response [4]: 0%
% Max Body Weight Loss [4]: 8.9%
% Decrease in Cell Counts from Vehicle, Lymphocytes [5, 10]: 34%
% Decrease in Cell Counts from Vehicle, Neutrophils [5, 10]: 69%
% Decrease in Cell Counts from Vehicle, Platelets [5, 10]: 9%
% Decrease in Cell Counts from Vehicle, Lymphocytes [5, 12]: 0%
% Decrease in Cell Counts from Vehicle, Neutrophils [5, 12]: 0%
% Decrease in Cell Counts from Vehicle, Platelets [5, 12]: 0%
% Max Body Weight Loss [5, 14]: 0%
neutropenia / neutrophil loss, in words [5]: caused neutropenia
% Max Body Weight Loss [6, 15]: 3.7%
% Cure Rate [6, 15]: 0%
% Max Body Weight Loss [6, 16]: 8.0%
% Cure Rate [6, 16]: 0%
predicted in vitro IC50 [7]: about 0.2 ng/mL
major dose limiting toxicity (DLT) [8]: neutropenia
